# According to patent US6706740B2, “Fungicidal heterocyclic aromatic amides and their compositions, methods of use and preparation” (Dow AgroSciences LLC, priority 1999, dated 2004):
# Test system: Stagonospora nodorum (Leptosphaeria nodorum—LEPTNO)
# Assay: In vitro fungal growth inhibition, Stagonospora nodorum (LEPTNO)
# Format: cell-based
# Conditions: Leptosphaeria; 25 ppm in growth medium; read-out: LEPTNO in vitro Growth Inhibition
row,SMILES,inhibition at 25 ppm [%]
1,COc1ccnc(C(=O)N[C@H]2COC(=O)[C@H](Cc3ccccc3)[C@@H](OC(=O)C(C)C)[C@H](C)OC2=O)c1OC(=O)c1ccccc1C [Compound 628],> 80
2,COc1ccnc(C(=O)NCCCCC(=O)Oc2cccnc2Br)c1O [Compound 366],< 80
3,COc1ccnc(C(=O)N[C@H]2COC(=O)[C@H](Cc3ccccc3)[C@@H](OC(=O)C(C)C)[C@H](C)OC2=O)c1OC(=O)c1ccnc(Cl)c1 [Compound 672],> 80
4,COc1ccnc(C(=O)NCC(=O)OC2CCCCC2)c1O [Compound 372],< 80
5,COc1ccnc(C(=O)N[C@H]2COC(=O)[C@H](Cc3ccccc3)[C@@H](OC(=O)C(C)C)[C@H](C)OC2=O)c1OC(=O)/C=C/c1ccccc1 [Compound 651],> 80
6,COc1ccnc(C(=O)NCC(=O)OCCCCCc2ccccc2)c1O [Compound 371],< 80
7,COc1ccnc(C(=O)N[C@H]2COC(=O)[C@H](Cc3ccccc3)[C@@H](OC(=O)C(C)C)[C@H](C)OC2=O)c1OC(=O)c1ccc(F)cc1 [Compound 637],> 80

# Test system: Mycosphaerella graminicola (Septoria tritici—SEPTTR)
# Assay: In vitro fungal growth inhibition, Mycosphaerella graminicola (SEPTTR)
# Format: cell-based
# Conditions: Zymoseptoria tritici; 25 ppm in growth medium; read-out: SEPTTR in vitro Growth Inhibition
row,SMILES,inhibition at 25 ppm [%]
1,COc1ccnc(C(=O)N[C@H]2COC(=O)[C@H](Cc3ccccc3)[C@@H](OC(=O)C(C)C)[C@H](C)OC2=O)c1OC(=O)c1ccccc1C [Compound 628],< 80
2,COc1ccnc(C(=O)NCCCCC(=O)Oc2cccnc2Br)c1O [Compound 366],< 80
3,COc1ccnc(C(=O)N[C@H]2COC(=O)[C@H](Cc3ccccc3)[C@@H](OC(=O)C(C)C)[C@H](C)OC2=O)c1OC(=O)c1ccnc(Cl)c1 [Compound 672],< 80
4,COc1ccnc(C(=O)NCC(=O)OC2CCCCC2)c1O [Compound 372],< 80
5,COc1ccnc(C(=O)N[C@H]2COC(=O)[C@H](Cc3ccccc3)[C@@H](OC(=O)C(C)C)[C@H](C)OC2=O)c1OC(=O)/C=C/c1ccccc1 [Compound 651],< 80
6,COc1ccnc(C(=O)NCC(=O)OCCCCCc2ccccc2)c1O [Compound 371],< 80
7,COc1ccnc(C(=O)N[C@H]2COC(=O)[C@H](Cc3ccccc3)[C@@H](OC(=O)C(C)C)[C@H](C)OC2=O)c1OC(=O)c1ccc(F)cc1 [Compound 637],< 80

# Test system: Rhizoctonia solani (RHIZSO)
# Assay: microbe, parasite or virus in culture
# Format: cell-based
# Conditions: Rhizoctonia solani, read-out: RHIZSO in vitro Growth Inhibition
row,SMILES,inhibition at 25 ppm [%]
1,COc1ccnc(C(=O)N[C@H]2COC(=O)[C@H](Cc3ccccc3)[C@@H](OC(=O)C(C)C)[C@H](C)OC2=O)c1OC(=O)c1ccccc1C [Compound 628],< 80
2,COc1ccnc(C(=O)NCCCCC(=O)Oc2cccnc2Br)c1O [Compound 366],< 80
3,COc1ccnc(C(=O)N[C@H]2COC(=O)[C@H](Cc3ccccc3)[C@@H](OC(=O)C(C)C)[C@H](C)OC2=O)c1OC(=O)c1ccnc(Cl)c1 [Compound 672],< 80
4,COc1ccnc(C(=O)NCC(=O)OC2CCCCC2)c1O [Compound 372],> 80
5,COc1ccnc(C(=O)N[C@H]2COC(=O)[C@H](Cc3ccccc3)[C@@H](OC(=O)C(C)C)[C@H](C)OC2=O)c1OC(=O)/C=C/c1ccccc1 [Compound 651],< 80
6,COc1ccnc(C(=O)NCC(=O)OCCCCCc2ccccc2)c1O [Compound 371],> 80
7,COc1ccnc(C(=O)N[C@H]2COC(=O)[C@H](Cc3ccccc3)[C@@H](OC(=O)C(C)C)[C@H](C)OC2=O)c1OC(=O)c1ccc(F)cc1 [Compound 637],< 80

# Test system: Phytophthora infestans (PHYTIN)
# Assay: microbe, parasite or virus in culture
# Format: cell-based
# Conditions: Phytophthora infestans, read-out: PHYTIN in vitro Growth Inhibition
row,SMILES,inhibition at 25 ppm [%]
1,COc1ccnc(C(=O)N[C@H]2COC(=O)[C@H](Cc3ccccc3)[C@@H](OC(=O)C(C)C)[C@H](C)OC2=O)c1OC(=O)c1ccccc1C [Compound 628],< 80
2,COc1ccnc(C(=O)NCCCCC(=O)Oc2cccnc2Br)c1O [Compound 366],> 80
3,COc1ccnc(C(=O)N[C@H]2COC(=O)[C@H](Cc3ccccc3)[C@@H](OC(=O)C(C)C)[C@H](C)OC2=O)c1OC(=O)c1ccnc(Cl)c1 [Compound 672],< 80
4,COc1ccnc(C(=O)NCC(=O)OC2CCCCC2)c1O [Compound 372],< 80
5,COc1ccnc(C(=O)N[C@H]2COC(=O)[C@H](Cc3ccccc3)[C@@H](OC(=O)C(C)C)[C@H](C)OC2=O)c1OC(=O)/C=C/c1ccccc1 [Compound 651],< 80
6,COc1ccnc(C(=O)NCC(=O)OCCCCCc2ccccc2)c1O [Compound 371],< 80
7,COc1ccnc(C(=O)N[C@H]2COC(=O)[C@H](Cc3ccccc3)[C@@H](OC(=O)C(C)C)[C@H](C)OC2=O)c1OC(=O)c1ccc(F)cc1 [Compound 637],< 80

# Test system: Ustilago maydis (USTIMA)
# Assay: microbe, parasite or virus in culture
# Format: cell-based
# Conditions: Mycosarcoma maydis, read-out: USTIMA in vitro Growth Inhibition
row,SMILES,inhibition at 25 ppm [%]
1,COc1ccnc(C(=O)N[C@H]2COC(=O)[C@H](Cc3ccccc3)[C@@H](OC(=O)C(C)C)[C@H](C)OC2=O)c1OC(=O)c1ccccc1C [Compound 628],< 80
2,COc1ccnc(C(=O)NCCCCC(=O)Oc2cccnc2Br)c1O [Compound 366],< 80
3,COc1ccnc(C(=O)N[C@H]2COC(=O)[C@H](Cc3ccccc3)[C@@H](OC(=O)C(C)C)[C@H](C)OC2=O)c1OC(=O)c1ccnc(Cl)c1 [Compound 672],< 80
4,COc1ccnc(C(=O)NCC(=O)OC2CCCCC2)c1O [Compound 372],< 80
5,COc1ccnc(C(=O)N[C@H]2COC(=O)[C@H](Cc3ccccc3)[C@@H](OC(=O)C(C)C)[C@H](C)OC2=O)c1OC(=O)/C=C/c1ccccc1 [Compound 651],< 80
6,COc1ccnc(C(=O)NCC(=O)OCCCCCc2ccccc2)c1O [Compound 371],< 80
7,COc1ccnc(C(=O)N[C@H]2COC(=O)[C@H](Cc3ccccc3)[C@@H](OC(=O)C(C)C)[C@H](C)OC2=O)c1OC(=O)c1ccc(F)cc1 [Compound 637],< 80

# Test system: Magnaporthe grisea (Pyricularia oryzae—PYRIOR)
# Assay: microbe, parasite or virus in culture
# Format: cell-based
# Conditions: Pyricularia oryzae, read-out: PYRIOR in vitro Growth Inhibition
row,SMILES,inhibition at 25 ppm [%]
1,COc1ccnc(C(=O)N[C@H]2COC(=O)[C@H](Cc3ccccc3)[C@@H](OC(=O)C(C)C)[C@H](C)OC2=O)c1OC(=O)c1ccccc1C [Compound 628],< 80
2,COc1ccnc(C(=O)NCCCCC(=O)Oc2cccnc2Br)c1O [Compound 366],< 80
3,COc1ccnc(C(=O)N[C@H]2COC(=O)[C@H](Cc3ccccc3)[C@@H](OC(=O)C(C)C)[C@H](C)OC2=O)c1OC(=O)c1ccnc(Cl)c1 [Compound 672],< 80
4,COc1ccnc(C(=O)NCC(=O)OC2CCCCC2)c1O [Compound 372],< 80
5,COc1ccnc(C(=O)N[C@H]2COC(=O)[C@H](Cc3ccccc3)[C@@H](OC(=O)C(C)C)[C@H](C)OC2=O)c1OC(=O)/C=C/c1ccccc1 [Compound 651],< 80
6,COc1ccnc(C(=O)NCC(=O)OCCCCCc2ccccc2)c1O [Compound 371],< 80
7,COc1ccnc(C(=O)N[C@H]2COC(=O)[C@H](Cc3ccccc3)[C@@H](OC(=O)C(C)C)[C@H](C)OC2=O)c1OC(=O)c1ccc(F)cc1 [Compound 637],< 80
